Results as given in US20020198177A1, “Coenzyme Q and EPA” (priority 2001, published 2002).

Columns and labels:
[1] = assay type: in vivo, human
Excerpt: (§1) It was therefore decided to give the patient 10 g/d of 96% pure ethyl eicosapentaenoate containing less than 1% docosahexaenoic acid and no detectable linoleic acid.
No certain cause of the abnormal rhythm was identified. One possibility may have been the high intake of EPA. EPA at very high doses might theoretically give rise to oxygenated metabolites which could disturb cardiac rhythm. EPA at low doses seems to be strongly anti-arrhythmic but it is known that many anti-arrhythmic drugs can have pro-arrhythmic actions at certain doses.
Ubiquinone may have favourable effects on cardiac rhythm (R B Singh et al, Cardiovascular Drugs and Therapy 1998; 12: 347-353). 120 mg/day was given to the patient taking high dose EPA. […] The ubiquinone was then stopped after ten days.

cancerous cells = settings: cited from earlier work
cyclin D1 = settings: in vitro and in animal models of cancer; cited from earlier work
mantle cell lymphoma = experiment: Case study: high-dose ethyl eicosapentaenoate in a patient with mantle cell lymphoma; assay type: in vivo, human
Excerpt: The following example reports that cancer developed in an individual who had been taking ethyl-EPA at a regular dose of 1 g/d. This individual had also at times in the past three years taken 2 g/d EPA but still cancer developed. […] Doses of 3 g/d to 30 g/d, and preferably of 5 g/d or 20 g/d will therefore be useful in the treatment of cancer. The EPA may be provided in any assimilable form. However, the triglyceride form and the ethyl-ester form are relatively non-irritant to the gastrointestinal tract and are the preferred forms for delivering these large amounts by mouth although other forms could be used for the intravenous route of administration. The EPA for oral administration should be in the purest form possible, at least 70% pure, preferably 80-90% pure, and very preferably 95% or more pure. Docosahexaenoic acid and linoleic acid should each be present at less than 5% and preferably less than 1%. The EPA may be formulated in capsules, liquids or emulsions such as may be required to make it appropriate for either oral or intravenous administration.
A person who had been taking 1 g/d of ethyl eicosapentaenoate as a supplement for general health reasons developed a form of non-Hodgkin's lymphoma called a mantle cell lymphoma. This is characterised by an over-production of a cell cycle controlling factor known as cyclin D1. Cyclin D1 appears to force the cells to divide continually. […] However, high doses are required to achieve the necessary levels in the cancer tissue.
as §1

[2] = ubiquinone 120 mg/day added to high dose EPA, second day

Compound	heart rate and rhythm [1, 2]	heart rate at rest [1, 2]	cardiac rate and rhythm abnormality on continued treatment ([1]; ubiquinone plus high dose of EPA over a period of four months)	heart rate and rhythm on reintroducing ubiquinone ([1]; ubiquinone reintroduced, high dose EPA continued)	heart rate and rhythm after stopping ubiquinone ([1]; ubiquinone stopped after ten days, four days after stopping, high dose EPA continued)	growth of cancerous cells (cancerous cells)	synthesis of cyclin D1 (cyclin D1)	effect on the patient's palpable tumours (mantle cell lymphoma; 10 g/d of 96% pure ethyl eicosapentaenoate, sixth day of treatment, person)	cancer size (mantle cell lymphoma; dose of EPA increased to 10 g/day, within a matter of days)	management of cancer at low dose (mantle cell lymphoma; doses of EPA of 2 g/day or less, cancer developed on 1 g/d, at times 2 g/d)
COC1=C(OC)C(=O)C(C/C=C(\C)CC/C=C(\C)CC/C=C(\C)CC/C=C(\C)CC/C=C(\C)CC/C=C(\C)CC/C=C(\C)CC/C=C(\C)CC/C=C(\C)CCC=C(C)C)=C(C)C1=O [ubiquinone]	returned to normal	65 to 75 min⁻¹	no return of the cardiac rate and rhythm abnormality	normal rate and rhythm came back	variability of rate and rhythm returned	–	–	–	–	–
CC/C=C\C/C=C\C/C=C\C/C=C\C/C=C\CCCC(=O)OCC [ethyl eicosapentaenoate]	–	–	–	–	–	could inhibit the growth of cancerous cells	able to inhibit the synthesis of cyclin D1	began to regress	reduced dramatically in size	likely to be ineffective
